Structures are written as SMILES.

This note sets out measurements from patent US7501512B2, “Chemical compounds” (SmithKline Beecham Corporation, priority 2003, dated 2009).

MAPKAP2 kinase (MK2), sequence (P49137 whole entry, species assumed): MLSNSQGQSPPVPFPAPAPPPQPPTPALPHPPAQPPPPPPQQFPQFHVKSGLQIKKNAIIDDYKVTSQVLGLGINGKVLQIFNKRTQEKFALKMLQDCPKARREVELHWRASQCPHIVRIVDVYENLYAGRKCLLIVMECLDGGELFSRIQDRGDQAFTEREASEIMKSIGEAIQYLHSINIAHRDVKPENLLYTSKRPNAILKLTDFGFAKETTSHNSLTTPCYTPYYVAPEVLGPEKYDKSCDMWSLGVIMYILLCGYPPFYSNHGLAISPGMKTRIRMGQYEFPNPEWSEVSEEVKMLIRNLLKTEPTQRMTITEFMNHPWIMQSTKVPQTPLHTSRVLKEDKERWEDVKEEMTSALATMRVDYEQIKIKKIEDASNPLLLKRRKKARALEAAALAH

One assay deals with T1, hYAK3 (Homo sapiens, UniProt O43781).
T1 construct: made in house; host or cells: baculovirus expression system in Sf9 cells
T1 sequence (O43781 124-526): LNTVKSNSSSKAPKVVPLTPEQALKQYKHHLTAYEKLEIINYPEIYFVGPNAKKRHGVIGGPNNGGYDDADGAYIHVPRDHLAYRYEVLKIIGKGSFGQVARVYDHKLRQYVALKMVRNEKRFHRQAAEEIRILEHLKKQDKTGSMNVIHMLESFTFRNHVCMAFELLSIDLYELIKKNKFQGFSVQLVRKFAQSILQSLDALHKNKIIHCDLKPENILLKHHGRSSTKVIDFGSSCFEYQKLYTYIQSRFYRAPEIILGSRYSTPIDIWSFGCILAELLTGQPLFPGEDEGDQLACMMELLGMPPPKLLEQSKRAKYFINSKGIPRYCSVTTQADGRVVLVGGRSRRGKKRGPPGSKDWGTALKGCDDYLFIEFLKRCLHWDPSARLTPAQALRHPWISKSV
Briefly: YAK3 scintillation proximity assay using Ser164 of myelin basic protein as phosphoacceptor. Format: biochemical. The note with it: purified GST-hYak3-His6, 0.001 mM ATP, 4 μM Ser164 peptide; read-out: pIC50 values (converted). The procedure:
YAK3 Scintillation Proximity Assays Using Ser164 of Myelin Basic Protein as the Phosphoacceptor
The source of Ser164 substrate peptide The biotinylated Ser164, S164A peptide (Biotinyl-LGGRDSRAGS*PMARR-OH), sequence derived from the C-terminus of bovine myelin basic protein (MBP) with Ser162 substituted as Ala162, was purchased from California Peptide Research Inc. (Napa, Calif.), and its purity was determined by HPLC. Phosphorylation occurs at position 164 (marked S* above). The calculated molecular mass of the peptide was 2166 dalton. Solid sample was dissolved at 10 mM in DMSO, aliquoted, and stored at −20° C. until use.
hYAK3: Glutathione-S-Transferase (GST)-hYak3-His6 containing amino acid residues 124-526 of human YAK3 (aa 124-526 of SEQ ID NO 2. in U.S. Pat. No. 6,323,318) was purified from baculovirus expression system in Sf9 cells using Glutathione Sepharose 4B column chromatography followed by Ni-NTA-Agarose column chromatography. Purity greater than 65% typically was achieved. Samples, in 50 mM Tris, 150 mM NaCl, 10% glycerol, 0.1% Triton, 250 mM imidazole, 10 mM β-mercapto ethanol, pH 8.0. were stored at −80° C. until use.
Kinase assay of purified hYAK3: Assays were performed in 96 well (Costar, Catalog No. 3789) or 384 well plates (Costar, Catalog No. 3705). Reaction (in 20, 25, or 40 μl volume) mix contained in final concentrations 25 mM Hepes buffer, pH 7.4; 10 mM MgCl2; 10 mM β-mercapto ethanol; 0.0025% Tween-20; 0.001 mM ATP, 0.1 μCi of [γ-^33P]ATP; purified hYAK3 (7-14 ng/assay; 4 nM final); and 4 μM Ser164 peptide. Compounds, titrated in DMSO, were evaluated at concentrations ranging from 50 μM to 0.5 nM. […] Reactions were incubated for 2 hours at room temperature and were stopped by a 75 ul addition of […] Streptavidin Scintillation Proximity beads (Amersham Pharmacia Biotech, Catalog No. RPNQ 0007) in PBS, pH 7.4, 10 mM EDTA, 0.1% Triton X-100, 1 mM ATP. Under the assay conditions defined above, the Km (apparent) for ATP was determined to be 7.2+/−2.4 μM.
For orientation: In a scintillation proximity assay essentially only radioactivity close to the scintillant gives light.
`COc1ccc2c(c1)CCn1c-2cc(Nc2ccccc2Br)nc1=O` [Ie, 2-(2-Bromo-phenylamino)-9-methoxy-6,7-dihydro-pyrimido[6,1-a]isoquinolin-4-one]: the IC50 is 102 to 1000 nM.

With `COc1ccc2c(c1)CCn1c-2cc(Nc2c(OC)cccc2OC)nc1=O` [Ia, 2-(2,6-Dimethoxy-phenylamino)-9-methoxy-6,7-dihydro-pyrimido[6,1-a]isoquinolin-4-one], the IC50 is 10.2 to 100 nM.

Regarding `COc1ccc(CNc2cc3n(c(=O)n2)CCc2cc(OC)ccc2-3)cc1` [Iz, 9-Methoxy-2-(4-methoxy-benzylamino)-6,7-dihydro-pyrimido[6,1-a]isoquinolin-4-one], the IC50 is 102 to 1000 nM.

As for `COc1ccc2c(c1)CCn1c-2cc(NCCN(C)C)nc1=O` [Iw, 2-(2-Dimethylamino-ethylamino)-9-methoxy-6,7-dihydro-pyrimido[6,1-a]isoquinolin-4-one], the IC50 was 10.2 to 100 nM.

The next assay concerns the target MAPKAP2 kinase (MK2) (Homo sapiens, UniProt P49137). In words: MAPKAP2 kinase (MK2) enzyme assay. The assay is classed as biochemical. The note with it: 1 nM recombinant MK2, 1 μM ATP, 1 μM peptide substrate; read-out: pIC50 values (converted). How it is done: Compounds are tested for MAPKAP2 kinase (MK2) inhibitory activity in an assay that measures the MK2 catalyzed transfer of the γ-phosphate from ATP to serine/threonine residues of a biotinylated peptide [NH2-K(biotin)-KLNRTLSVA (SynPep Corporation, USA)]. Compounds under analysis are dissolved in DMSO to 1 mM and serially diluted 3-fold with DMSO in 96 or 384-well polypropylene or polystyrene plates for a total of 10-12 different concentrations. One uL of each concentration is transferred to the corresponding well of a 96 or 384-well, white, polystyrene assay plate. Reactions are performed in a final volume of 26 uL. An ATP solution (10 uL) is added to each well, and the reaction is initiated by the addition of a MK2/peptide mix (15 uL). The ATP solution is made in H2O and consists of 2.6 μM nonradioactive ATP (SigmaUltra) and 6.5 uCi/mL [γ-^33P]-ATP (Amersham Pharmacia Biotech). The MK2/peptide mix consists of 86.7 mM HEPES (SigmaUltra), pH 7.5, 8.67 mM MgCl2 (SigmaUltra), 0.0043% Tween 20, 1.73 mM dithiothreitol (added fresh from frozen 1M stock), 1.73 μM peptide, and 1.73 nM purified recombinant MK2. Final concentrations of the assay components are 50 mM HEPES, pH 7.5, 5 mM MgCl2, 0.0025% Tween 20, 1 mM dithiothreitol, 1 μM ATP, 2.5 μCi/mL [γ-^33P]-ATP, 1 μM peptide substrate, and 1 nM MK2. The reaction is allowed to proceed for 40 minutes and is then terminated by the addition of ‘stop solution’ (20 uL), followed by the addition of ‘bead mix’ (50 uL). […] The plates are allowed to sit for approximately 8 hours and then are quantitated using a TopCount NXF™ (Packard). Alternatively, the plates are allowed to sit for at least approximately 1 hour, centrifuged at 900 rpm for 3 minutes, and then quantitated using a TopCount NXT™ (Packard). […] Percent inhibition of MK2 activity is calculated for each compound concentration using Equation [1] […]
[formula] where Y2 is the baseline percent inhibition, Vmax is the net maximum percent inhibition (baseline subtracted), and K is the IC50. […] The results for each compound are recorded as pIC50, calculated using Equation [3]. pIC50=−log10([…]) (3)
Take `COc1ccc2c(c1)CCn1c-2cc(NCCN2CCCC2)nc1=O` [Iv, 9-Methoxy-2-(2-pyrrolidin-1-yl-ethylamino)-6,7-dihydro-pyrimido[6,1-a]isoquinolin-4-one]: the IC50 was 10 to 100 nM.

In the case of `COc1ccc2c(c1)CCn1c-2cc(Nc2cccc(S(N)(=O)=O)c2)nc1=O` [If, 3-(9-Methoxy-4-oxo-6,7-dihydro-4H-pyrimido[6,1-a]isoquinolin-2-ylamino)-benzenesulfonamide], the IC50 is 102 to 1000 nM.

With `COCCN(C)c1cc2n(c(=O)n1)CCc1cc(OC)ccc1-2` [Iy, 9-Methoxy-2-[(2-methoxy-ethyl)-methyl-amino]-6,7-dihydro-pyrimido[6,1-a]isoquinolin-4-one], the IC50 was 10 to 100 nM.
